Results reported in patent US20170196842A1, “METHODS OF TREATMENT USING A 1,2,4-OXADIAZOLE BENZOIC ACID” (PTC Therapeutics, Inc., priority 2014, published 2017).
Entries after “also recorded” stand apart in the source; their conditions may differ.

Assays:
[1] = tested on: Mouse embryonic fibroblasts (MEFs) isolated from the Idua-W402X mice; assay: GAG levels in cultured mouse embryonic fibroblasts from the nmHurler mouse model (Blyscan Sulfated GAG Assay); type: cell-based; conditions: 24 hours
Experimental: nmMPS I is caused by the lack of the lysosomal enzyme IDUA and results in the accumulation of GAGs in tissues. Therefore, GAG levels can be monitored to assess the efficacy of treatment for this disease. In the nmHurler mouse model of nmMPS I, the Idua-W402X Hurler mouse IDUA gene (TGG→TAG) harbors a W392X mutation in exon 9, corresponding to the W402X mutation found in approximately 30 to 50% of nmMPS I patients. Mouse embryonic fibroblasts (MEFs) isolated from the Idua-W402X mice were treated with Compound 1 at concentrations of 0, 1, 2.5, 5, 10, 20, and 40 μg/mL for 24 hours in 0.2% DMSO. After 24 hours, cells were lysed and the levels of GAGs were quantified.
(§1) The effect of Compound 1 on iduronidase activity as a result of readthrough of the premature stop codon present in the Idua gene was determined in an in vitro GAG accumulation assay. This assay utilized primary fibroblasts isolated from 13 day-old +/+ and −/− Idua-W392X mouse embryos. Mouse embryonic fibroblasts (MEFs) were isolated from 13 day-old wild type and homozygous Idua-W392X mouse embryo littermates. The cells were grown in Dulbecco's Modified Eagle Media (DMEM) containing 10% bovine calf serum (BCS)+1% non-essential amino acids+1% penicillin/streptomycin at 37° C. and 5% CO2. The MEFs were isolated and grown on collagen-coated plates until ˜50% confluent. MEFs from Idua-W392X mice were treated with increasing concentrations of Compound 1 dissolved in DMSO to a final concentration of 0.2%. Cells were incubated with Compound 1 for 24 hours. Controls included untreated wild type and untreated Idua-W392X MEFs. After 24 hours, cells were visually inspected for signs of cytotoxicity and cell stress and then lysed using M-Per Protein Reagent (Pierce) containing protease inhibitors (Complete-mini; Roche) per the manufacturer's instructions. The supernatant was used to determine glycosaminoglycan (GAG) levels, as described below.
GAG levels were determined using the Blyscan Sulfated GAG Assay (Biocolor Ltd, UK). Briefly, 50 μl of each lysate was added to 500 μl of the Blyscan Dye Reagent and mixed by vortexing. The mixture was incubated at room temperature for 30 minutes, vortexing every 5 minutes. The dye-bound GAGs were isolated from the solution by centrifuging for 10 minutes at 10,000 g at room temperature. 500 μl of the Blyscan Dye Dissociation Reagent was added to the […] from each sample. […] The entire volume of each sample was then placed into a cuvette and the absorbance was measured at a wavelength of 656 nm. The total amount of sulfated GAGs precipitated from each sample was determined from a standard curve using chondroitin 4-sulfate. The total protein concentration in each lysate was determined using the Bio-Rad protein assay with a standard curve generated using bovine serum albumin.

[2] = tested on: Mouse embryonic fibroblasts (MEFs); assay: Cell toxicity/stress (visual inspection) and total protein concentration in MEFs; type: cell-based; conditions: 24 hours
Experimental: The greatest reduction of GAG levels occurred at 10 μg/mL with decreased reduction of GAG levels at concentrations above 20 μg/mL. […] Cell viability was determined by quantifying the total protein concentration in each lysate.
as §1, with “After 24 hours, cells were visually inspected for signs of cytotoxicity and cell stress and then lysed using M-Per Protein Reagent (Pierce) containing protease inhibitors (Complete-mini; Roche) per the manufacturer's instructions. The supernatant was used to determine glycosaminoglycan (GAG) levels, as described below.” left out
The total protein concentration in each lysate was determined using the Bio-Rad protein assay with a standard curve generated using bovine serum albumin.

Idua-W402X mice = assay: Tissue GAG levels in the nonsense-mutation Hurler mouse model, Compound 1 given in chow; type: in vivo
Experimental: Compound 1 was administered to Idua-W402X mice by mixing Compound 1 into solid mouse chow at concentrations of 0.1%. 0.3% or 1.0% (w/w) for 2 weeks, after which time GAG levels in the brain, spleen, heart, liver, lung, and kidney tissues were quantified.
The effect of Compound 1 on iduronidase activity as a result of readthrough of the premature stop codon present in the Idua gene (Idua-W392X) was determined in a nonsense-mutation containing mouse model of Hurler syndrome, referred to as the Idua-W392X Hurler mouse. The study initiated when mice were 3-4 weeks old.
Homozygous Idua-W392X mice were offered food prepared with or without Compound 1 for 14 days. Wild type animals received chow without Compound 1 for 14 days. Assay results were obtained from tissues isolated from wild type (+/+) and homozygous Idua-W392X (−/−) mice after 14 days of treatment. Briefly, Compound 1 was dissolved in water, mixed into pulverized chow, shaped into pellets and dried.
Following the 14-day treatment period, mice were anesthetized using isoflurane and transcardially perfused with 20 mL saline prior to tissue collection. At the time of sacrifice, brain, liver, heart, lung, spleen and kidney were collected and frozen at −80° C. until used for determination of GAG levels.
GAG levels were determined using the Blyscan Sulfated GAG Assay (Biocolor Ltd, UK). Briefly, 50 μL of each lysate was added to 500 μL of the Blyscan Dye Reagent and mixed by vortexing. The mixture was incubated at room temperature for 30 minutes, vortexing every 5 minutes. The dye-bound GAGs were isolated from the solution by centrifuging for 10 minutes at 10,000 g at room temperature. A total of 500 μL of the Blyscan Dye Dissociation Reagent was added to the […] from each sample. The samples were vortexed and incubated for 10 minute at room temperature. The entire volume of each sample was then placed into a cuvette and the absorbance was measured at a wavelength of 656 nm. The total amount of sulfated GAGs precipitated from each sample was determined from a standard curve using chondroitin 4-sulfate. The total protein concentration in each lysate was determined using the Bio-Rad protein assay with a standard curve generated using bovine serum albumin.

[3] = Idua-W402X (W392X) mice, 0.1%, 0.3%, 1.0% (w/w) chow, 14 days
[4] = Idua-W402X mice, 0.1% (w/w) in chow, 2 weeks
[5] = Idua-W402X mice, 0.3% (w/w) in chow, 2 weeks
[6] = Idua-W402X mice, 1.0% (w/w) in chow, 2 weeks

Q: Which results are given for `O=C(O)c1cccc(-c2noc(-c3ccccc3F)n2)c1` [Compound 1, 3-[5-(2-fluoro-phenyl)-[1,2,4]oxadiazol-3-yl]-benzoic acid]?
A: Dose-response relationship for GAG reduction ([1]; Idua-W392X MEFs): U shaped dose-response relationship; Nonsense suppression activity as determined by GAG levels ([1]; Idua-W392X MEFs): concentration dependent nonsense suppression activity; Concentration giving the greatest reduction of GAG levels ([1]; Idua-W402X (W392X) MEFs, 1-40 μg/mL tested): 10 µg/mL; Concentrations with decreased reduction of GAG levels ([1]; Idua-W402X MEFs): above 20 μg/mL; Changes in total protein concentration (cell viability) ([2]; 0 to 40 μg/mL): No notable changes; Signs of cellular toxicity or stress (cells rounding up or floating, changes in cell density) ([2]; up to the highest concentration tested (40 μg/mL)): No signs of cellular toxicity or stress; also recorded: No signs of cell toxicity or stress; Nonsense suppression activity as determined by decreased GAG levels in multiple tissues (Idua-W402X mice; Idua-W392X mice, chow, 14 days): concentration-dependent nonsense suppression activity; Compound 1 concentration in chow giving maximal reduction of GAG levels in brain, spleen, heart and lung (Idua-W402X mice; [3]): 0.1%; Compound 1 concentration in chow giving maximal reduction of liver GAG levels (Idua-W402X mice; [3]): 0.3%; Effect on GAG levels in the kidney (Idua-W402X mice; Idua-W402X (W392X) mice, any dose (0.1-1.0% chow)): No statistically significant effect; Reduction in Excess GAG Levels, Brain (Idua-W402X mice; [4]): 70%; Reduction in Excess GAG Levels, Heart (Idua-W402X mice; [4]): 36%; Reduction in Excess GAG Levels, Kidney (Idua-W402X mice; [4]): 0%; Reduction in Excess GAG Levels, Liver (Idua-W402X mice; [4]): 0%; Reduction in Excess GAG Levels, Lung (Idua-W402X mice; [4]): 19%; Reduction in Excess GAG Levels, Spleen (Idua-W402X mice; [4]): 78%; GAG levels achieved in the brain and spleen (Idua-W402X mice; Idua-W402X mice, 0.1% in chow, 2 weeks): near normal GAG levels; Reduction in Excess GAG Levels, Brain (Idua-W402X mice; [5]): 37%; Reduction in Excess GAG Levels, Heart (Idua-W402X mice; [5]): 0%; Reduction in Excess GAG Levels, Kidney (Idua-W402X mice; [5]): 0%; Reduction in Excess GAG Levels, Liver (Idua-W402X mice; [5]): 53%; Reduction in Excess GAG Levels, Lung (Idua-W402X mice; [5]): 11%; Reduction in Excess GAG Levels, Spleen (Idua-W402X mice; [5]): 57%; Reduction in Excess GAG Levels, Brain (Idua-W402X mice; [6]): 28%; Reduction in Excess GAG Levels, Heart (Idua-W402X mice; [6]): 0%; Reduction in Excess GAG Levels, Kidney (Idua-W402X mice; [6]): 0%; Reduction in Excess GAG Levels, Liver (Idua-W402X mice; [6]): 17%; Reduction in Excess GAG Levels, Lung (Idua-W402X mice; [6]): 14%; Reduction in Excess GAG Levels, Spleen (Idua-W402X mice; [6]): 11%
